Common to all, as to format: biochemical
Test [1] deals with LCK (Homo sapiens, UniProt P06239). Kind of test: Inhibition of a panel of kinases, in vitro HotSpot kinase assay: LCK. Conditions: read-out: IC50 LCK.
For test [2], the target named is T1, ITK (Homo sapiens, UniProt Q08881).
T1 sequence (Q08881 1-620): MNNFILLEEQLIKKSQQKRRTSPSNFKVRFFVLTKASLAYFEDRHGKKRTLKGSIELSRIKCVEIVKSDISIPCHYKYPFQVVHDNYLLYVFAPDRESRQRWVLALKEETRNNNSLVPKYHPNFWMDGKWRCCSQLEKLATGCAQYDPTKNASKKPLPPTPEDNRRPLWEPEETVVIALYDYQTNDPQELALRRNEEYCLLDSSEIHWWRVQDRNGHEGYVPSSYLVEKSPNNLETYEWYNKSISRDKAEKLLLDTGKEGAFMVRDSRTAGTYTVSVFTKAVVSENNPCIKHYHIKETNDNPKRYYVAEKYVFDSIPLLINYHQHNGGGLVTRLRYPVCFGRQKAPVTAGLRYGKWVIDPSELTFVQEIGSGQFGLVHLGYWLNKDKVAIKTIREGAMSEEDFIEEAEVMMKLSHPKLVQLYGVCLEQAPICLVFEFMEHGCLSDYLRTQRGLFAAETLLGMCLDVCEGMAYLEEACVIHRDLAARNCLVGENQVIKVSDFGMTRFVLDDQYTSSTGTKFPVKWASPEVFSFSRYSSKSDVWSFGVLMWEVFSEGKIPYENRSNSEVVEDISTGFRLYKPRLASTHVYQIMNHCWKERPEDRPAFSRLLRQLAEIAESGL
Kind of test: Inhibition of a panel of kinases, in vitro HotSpot kinase assay: ITK. The procedure: The degree of inhibition of a panel of kinases is determined using the in vitro HotSpot kinase assay (purified enzymes, ^33P-ATP, an appropriate substrate and 1 μM ATP).

Test [3] deals with T2, JAK3 (Homo sapiens, UniProt P52333).
T2 sequence (P52333 1-1124): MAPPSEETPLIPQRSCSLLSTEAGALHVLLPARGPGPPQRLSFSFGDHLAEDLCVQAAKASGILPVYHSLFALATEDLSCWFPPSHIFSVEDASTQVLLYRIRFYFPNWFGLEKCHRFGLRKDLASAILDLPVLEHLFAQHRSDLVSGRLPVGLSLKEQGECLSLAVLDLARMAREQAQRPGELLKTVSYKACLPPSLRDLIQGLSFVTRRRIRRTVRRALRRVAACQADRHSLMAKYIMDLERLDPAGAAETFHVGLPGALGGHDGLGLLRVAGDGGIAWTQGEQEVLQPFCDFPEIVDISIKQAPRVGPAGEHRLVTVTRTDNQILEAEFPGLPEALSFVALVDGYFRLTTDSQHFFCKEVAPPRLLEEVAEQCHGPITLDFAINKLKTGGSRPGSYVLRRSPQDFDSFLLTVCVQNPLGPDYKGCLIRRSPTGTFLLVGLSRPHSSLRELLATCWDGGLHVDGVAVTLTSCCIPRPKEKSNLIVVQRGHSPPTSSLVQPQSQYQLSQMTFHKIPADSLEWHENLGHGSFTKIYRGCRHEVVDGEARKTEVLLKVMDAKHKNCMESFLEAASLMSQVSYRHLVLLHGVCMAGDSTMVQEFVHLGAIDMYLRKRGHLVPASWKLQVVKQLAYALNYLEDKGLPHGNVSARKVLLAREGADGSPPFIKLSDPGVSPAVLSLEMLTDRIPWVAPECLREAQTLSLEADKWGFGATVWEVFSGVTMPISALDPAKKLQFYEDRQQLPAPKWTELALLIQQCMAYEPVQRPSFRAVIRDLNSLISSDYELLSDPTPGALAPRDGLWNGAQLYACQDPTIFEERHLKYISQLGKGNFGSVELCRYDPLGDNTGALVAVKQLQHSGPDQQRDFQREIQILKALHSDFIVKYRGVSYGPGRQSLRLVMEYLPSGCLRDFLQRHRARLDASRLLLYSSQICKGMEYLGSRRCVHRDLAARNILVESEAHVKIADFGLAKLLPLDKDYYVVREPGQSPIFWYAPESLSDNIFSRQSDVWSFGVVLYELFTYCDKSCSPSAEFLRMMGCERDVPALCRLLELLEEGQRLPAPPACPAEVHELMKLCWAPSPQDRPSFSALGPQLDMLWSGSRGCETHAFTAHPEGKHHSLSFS
Kind of test: Inhibition of a panel of kinases, in vitro HotSpot kinase assay: JAK3. As to conditions: read-out: IC50 JAK3.

[4] abbreviates: Table 13, A compounds, 1 μM ATP.

Molecules are shown by their SMILES. Read-outs that look alike come from different tables or passages of the source. A value given as a limit tells only on which side of the number the result lay.

Sequence of LCK (P06239 whole entry): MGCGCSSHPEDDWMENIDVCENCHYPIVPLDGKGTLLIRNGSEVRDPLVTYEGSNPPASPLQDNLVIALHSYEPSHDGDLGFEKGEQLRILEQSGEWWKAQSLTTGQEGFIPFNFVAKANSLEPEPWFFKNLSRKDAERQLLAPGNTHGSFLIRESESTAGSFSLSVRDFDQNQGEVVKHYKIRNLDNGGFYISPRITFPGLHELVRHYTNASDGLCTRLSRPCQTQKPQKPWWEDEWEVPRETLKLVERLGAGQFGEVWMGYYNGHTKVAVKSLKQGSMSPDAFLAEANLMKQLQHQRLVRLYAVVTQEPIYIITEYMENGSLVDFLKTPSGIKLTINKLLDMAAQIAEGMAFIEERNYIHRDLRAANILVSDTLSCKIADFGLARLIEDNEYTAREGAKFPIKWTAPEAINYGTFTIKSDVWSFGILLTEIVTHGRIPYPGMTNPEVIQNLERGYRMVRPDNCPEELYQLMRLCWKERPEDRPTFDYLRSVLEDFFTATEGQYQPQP

On to `C[C@@H]1[C@H](NC(=O)c2ccc(C3CC3)cc2F)CCCN1c1cnc(C(N)=O)c(Nc2cc(CN3CCOCC3)ns2)n1` [Example A-128, 5-[(2R,3R)-3-(4-cyclopropyl-2-fluorobenzamido)-2-methylpiperidin-1-yl]-3-{[3-(morpholin-4-ylmethyl)-1,2-thiazol-5-yl]amino}pyrazine-2-carboxamide], for which the figures for the IC50 in test [1] (setting [4]), in test [2] (setting [4]) and in test [3] (setting [4]) were 0.01 to 0.1 µM, 0.1 to 1 µM and 0.1 to 1 µM, respectively.

On to `C[C@@H]1[C@H](NC(=O)c2ccc3oc(C4CC4)nc3c2)CCCN1c1cnc(C(N)=O)c(Nc2cnn(C)c2)n1` [Example E-139, N-((2R,3R)-1-(5-carbamoyl-6-((1-methyl-1H-pyrazol-4-yl)amino)pyrazin-2-yl)-2-methylpiperidin-3-yl)-2-cyclopropylbenzo[d] oxazole-5-carboxamide], for which the IC50 was in the range of 0.01 to 0.1 µM in test [1] (E compounds, Table 17); 0.1 to 1 µM in test [2] (E compounds, Table 17); 0.1 to 1 µM in test [3] (E compounds, Table 17).

For the molecule `C[C@@H]1[C@H](NC(=O)c2ccc(C3CC3)cc2F)CCCN1c1cnc(C(N)=O)c(Nc2ccc(S(=O)(=O)N3CCCC3)cc2)n1` [Example A-175, 5-[(2R,3R)-3-(4-cyclopropyl-2-fluorobenzamido)-2-methylpiperidin-1-yl]-3-{[4-(pyrrolidine-1-sulfonyl)phenyl]amino}pyr-azine-2-carboxamide], the IC50 in test [1] (setting [4]), in test [2] (setting [4]) and in test [3] (setting [4]) was greater than 10 µM in each case.

On to `C[C@@H]1[C@H](NC(=O)c2ccc(C3CC3)cc2F)CCCN1c1cnc(C(N)=O)c(Nc2cnn(C)c2)c1` [Example A-127, 5-[(2R,3R)-3-(4-cyclopropyl-2-fluorobenzamido)-2-methylpiperidin-1-yl]-3-[(1-methyl-1H-pyrazol-4-yl)amino]pyridine-2-carboxamide], for which the IC50 in test [1] (setting [4]) lay within 0.1 to 1 µM; in test [2] (setting [4]), 1 to 10 µM; in test [3] (setting [4]) it was 1 to 10 µM.

In the case of `CCC(O)(CC)c1ccc(C(=O)N[C@@H]2CCCN(c3cnc(C(N)=O)c(Nc4cnn(C)c4)n3)[C@@H]2C)cc1` [Example E-151, 5-((2R,3R)-3-(4-(3-hydroxypentan-3-yl)benzamido)-2-methylpiperidin-1-yl)-3-((1-methyl-1H-pyrazol-4-yl)amino)pyrazine-2-carboxamide], the IC50 was 0.1 to 1 µM in test [1] (E compounds, Table 17); 0.1 to 1 µM in test [2] (E compounds, Table 17); 0.1 to 1 µM in test [3] (E compounds, Table 17).

For the molecule `Cc1cc(Nc2nc(N3CCC[C@@H](n4ccc5cc(C6CC6)ccc5c4=O)C3)cnc2C(N)=O)sn1` [Example A-107, 5-[(3R)-3-(6-cyclopropyl-1-oxo-1,2-dihydroisoquinolin-2-yl)piperidin-1-yl]-3-[(3-methyl-1,2-thiazol-5-yl)amino]pyrazine-2-carboxamide], the IC50 in test [1] (setting [4]), in test [2] (setting [4]) and in test [3] (setting [4]) was greater than 10 µM each time.

Consider `C[C@@H]1[C@H](NC(=O)c2cccc(C(C)(C)O)c2)CCCN1c1cnc(C(N)=O)c(Nc2cnn(C)c2)n1` [Example E-145, 5-((2R,3R)-3-(3-(2-hydroxypropan-2-yl)benzamido)-2-methylpiperidin-1-yl)-3-((1-methyl-1H-pyrazol-4-yl)amino)pyrazine-2-carboxamide], for which the IC50 lay within 0.01 to 0.1 µM in test [1] (E compounds, Table 17); 0.1 to 1 µM in test [2] (E compounds, Table 17); 0.1 to 1 µM in test [3] (E compounds, Table 17).

In the case of `C[C@@H]1[C@H](NC(=O)c2ccc(C(C)(C)O)cc2)CCCN1c1cnc(C(N)=O)c(Nc2ccc(C3(C)CCN(C4CC4)CC3)cc2)n1` [Example E-147, 3-((4-(1-cyclopropyl-4-methylpiperidin-4-yl)phenyl)amino)-5-((2R,3R)-3-(4-(2-hydroxypropan-2-yl)benzamido)-2-methylpiperidin-1-yl)pyrazine-2-carboxamide], the IC50 was less than 0.01 µM in test [1] (E compounds, Table 17); 0.01 to 0.1 µM in test [2] (E compounds, Table 17); 0.1 to 1 µM in test [3] (E compounds, Table 17).

For `C[C@@H]1[C@H](NC(=O)c2ccc(C3CC3)cc2F)CCCN1c1cnc(C(N)=O)c(Nc2nc3c(s2)CN(C)CC3)n1` [Example A-108, 5-[(2R,3R)-3-(4-cyclopropyl-2-fluorobenzamido)-2-methylpiperidin-1-yl]-3-({5-methyl-4H,5H,6H,7H-[1,3]thiazolo[5,4-c]pyridin-2-yl}amino)pyrazine-2-carboxamide], the IC50 in test [1] (setting [4]), in test [2] (setting [4]) and in test [3] (setting [4]) was greater than 10 µM throughout.

As for `C=CC(=O)N1CCC[C@@H](N(C)c2cnc(C(N)=O)c(Nc3ccc(C(C)C)cc3)n2)C1` [Example E-102, (R)-5-((1-acryloylpiperidin-3-yl)(methyl)amino)-3-(4-isopropylphenylamino) pyrazine-2-carboxamide], the IC50 in test [1] (E compounds, Table 17) was in the range of 1 to 10 µM; in test [2] (E compounds, Table 17), 0.01 to 0.1 µM; in test [3] (E compounds, Table 17), 0.01 to 0.1 µM.

As to `C=CC(=O)N[C@@H]1CCCN(c2nnc(C(N)=O)c(Nc3ccc(Cl)cc3)n2)[C@@H]1C` [Example E-5, 3-((2R,3R)-3-acrylamido-2-methylpiperidin-1-yl)-5-((4-chlorophenyl)amino)-1,2,4-triazine-6-carboxamide], the IC50 in test [1] (E compounds, Table 17) is less than 0.01 µM; in test [2] (E compounds, Table 17), 0.01 to 0.1 µM; in test [3] (E compounds, Table 17), less than 0.01 µM.

For the molecule `CC(C)c1ccc(Nc2nc(N3CCC[C@@H](N4CCC[C@@H](Nc5cc(Cl)cc(C(F)(F)F)c5)C4=O)C3)nnc2C(N)=O)cc1` [Example E-128, 3-((3R,3′R)-3-((3-chloro-5-(trifluoromethyl)phenyl)amino)-2-oxo-[1,3′-bipiperidin]-1′-yl)-5-((4-isopropylphenyl)amino)-1,2,4-triazine-6-carboxamide], the IC50 in test [1] (E compounds, Table 17) was in the range of 0.01 to 0.1 µM; in test [2] (E compounds, Table 17) it was 0.01 to 0.1 µM; in test [3] (E compounds, Table 17), 1 to 10 µM.

For the molecule `C[C@@H]1[C@H](NC(=O)c2noc(C(C)(C)C)n2)CCCN1c1cnc(C(N)=O)c(Nc2cnn(C)c2)n1` [Example E-149, 5-(tert-butyl)-N-((2R,3R)-1-(5-carbamoyl-6-((1-methyl-1H-pyrazol-4-yl)amino)pyrazin-2-yl)-2-methylpiperidin-3-yl)-1,2,4-oxadiazole-3-carboxamide], the IC50 fell in the range of 1 to 10 µM in test [1] (E compounds, Table 17); 1 to 10 µM in test [2] (E compounds, Table 17); 1 to 10 µM in test [3] (E compounds, Table 17).

In the case of `C[C@@H]1[C@H](NC(=O)c2ccc(C3CC3)cc2F)CCCN1c1cnc(C(N)=O)c(Nc2ccc(N3CCN(C)CC3)nc2)n1` [Example A-177, 5-[(2R,3R)-3-(4-cyclopropyl-2-fluorobenzamido)-2-methylpiperidin-1-yl]-3-{[6-(4-methylpiperazin-1-yl)pyridin-3-yl]amino}pyrazine-2-caoxamide], the IC50 in test [1] (setting [4]) was 0.1 to 1 µM; in test [2] (setting [4]), 1 to 10 µM; in test [3] (setting [4]), 1 to 10 µM.

`COCCn1cc(Nc2nc(N3CCC[C@@H](NC(=O)c4ccc(C5CC5)cc4)[C@H]3C)cnc2C(N)=O)cn1` [Example A-186, 5-((2R,3R)-3-(4-cyclopropylbenzamido)-2-methylpiperidin-1-yl)-3-(1-(2-methoxylethyl)-1H-pyrazol-4-ylamino)pyrazine-2-carboxamide]: the values for the IC50 in test [1] (setting [4]), in test [2] (setting [4]) and in test [3] (setting [4]) were 0.1 to 1 µM, 0.1 to 1 µM and 1 to 10 µM, respectively.

What is called IC50 is the concentration at which inhibition is half-maximal.

For the origin of these results see patent publication US20210070748A1, “INHIBITORS OF BRUTONS TYROSINE KINASE” (Pharmacyclics LLC, priority 2015, published 2021).
